# Measurements as given in patent US8129137B2, “Two-photon probe for real-time monitoring of intracellular free zinc ions, method for preparing the probe and method for real-time monitoring of intracellular free zinc ions using the probe” (Korea University Industrial & Academic Collaboration …, priority 2008, dated 2012).
# Tests used:
# [1] = Fluorescence quantum yield (Coumarin 307 as reference); format: physicochemical
# Experimental: The absorption spectra of the two-photon probes were recorded on a Hewlett-Packard 8453 diode array spectrophotometer, and the fluorescence spectra of the two-photon probes were obtained with an Amico-Bowman series 2 luminescence spectrometer with a 1 cm standard quartz cell. The fluorescence quantum yields of the two-photon probes were determined by using Coumarin 307 as the reference by the literature method (J. N. Demas, G. A. Crosby, J. Phys. Chem. 1971, 75, 991-1024.). FIGS. 2a and 2b are one-photon absorption and emission spectra of the two-photon probe AZn1, respectively, and FIGS. 2c and 2d are one-photon absorption and emission spectra of the two-photon probe AZn2, respectively.
# [2] = Two-photon cross section and action spectra; format: physicochemical; settings: MOPS buffer pH 7.2, presence of Zn2+; 780 nm
# Experimental: The two-photon cross section (δ) was determined by using femto second (fs) fluorescence measurement technique.
# The intensities of the two-photon induced fluorescence spectra of the reference and the sample probe were measured, and the two-photon cross section of the sample probe was calculated according to Equation 3:
# [formula] wherein the subscripts s and r represent sample and reference molecules, respectively, δ represents the two-photon cross section, S represents the strength of signals collected by a CCD detector, φ represents the fluorescence quantum efficiency, φrepresents the total fluorescence collection efficiency of an experimental system, c represents the number density of the molecules within each of the solutions, and δr represents the two-photon cross section of reference molecules.
# Referring to FIG. 9, the two-photon action spectra of the Zn^2+ complexes with AZn1 and AZn2 in the buffer solutions indicated a φδ value of ˜90 GM at 780 nm, 4˜24-fold larger than those of TSQ and FluZin-3.
# [3] = Dissociation constants for Zn2+ from one- and two-photon fluorescence titration; format: binding
# Experimental: MOPS buffer solutions (30 mM, pH 7.2, 0.1 M KCl) containing different amounts of ZnSO4 and 10 mM EGTA were prepared.
# The concentration of free Zn^2+ ([Zn^2+]free) was calculated from KZn−EGTA^app, [EGTA]free, and [Zn^2+]total using Equation 1: [Zn^2+]free=[Zn^2+]total/(αZn×KZn−EGTA^app×[EGTA]free) (1) where KZn−EGTA^app=KZn−EGTA/αZnαEGTA, αZn=1+10^(pH−pK^1^)+10^(2pH−pK^1^−pK^2^)+10^(3pH−pK^1^−pK^2^−pK^3^) . . . , αEGTA=1+10^(pK^1^−pH+0.11)+10^(pK^1^+pK^2^−2pH+0.22)+10^(pK^1^+pK^2^+pK^3^−3pH+0.33) . . . , and [EGTA]free=[EGTA]total−[Zn^2+]total. Therefore,
# Then, the stability constant (KZn−EGTA) of the EGTA−Zn^2+ complex was obtained by the known method. For EGTA (pH 7.2, 0.1 M KCl, 25° C.), pK1, pK2, pK3 and log^K^Zn−EGTA were 9.40, 8.79, 2.70 and 12.6, respectively. […]
# In order to determine accurate dissociation constants for the two-photon probes, fluorescence titration curves were obtained from FIGS. 3a and 3e using Equation 2:
# [formula] where F is the fluorescence intensity, Fmax is the maximum fluorescence intensity, Fo is the fluorescence intensity in the absence of Zn^2+, and [Zn^2+]free is the concentration of free Zn^2+.
# The Kd value that best fits the titration curve ([…]) with Equation 2 was calculated by using the Excel program. […]
# [4] = Fluorescence enhancement with varying Zn2+ concentrations; settings: for FEF^OP, fluorescence enhancement factor by one-photon process / FEF^TP, fluorescence enhancement factor by two-photon process: (F−Fmin)/Fmin, MOPS buffer pH 7.2, presence of Zn2+
# Experimental: The one-photon absorption and emission spectra and two-photon emission spectra of the two-photon probes AZn2 and AZn1 were measured with varying Zn^2+concentrations, and the results are shown in FIGS. 3a through 3f.
# As can be known from FIGS. 3a through 3f, when small increments of Zn^2+were added to AZn1 and AZn2 in MOPS buffer solution (30 mM, pH 7.2, /=0.10), the one- and two-photon excitation fluorescence (emission) intensity increased gradually without affecting the absorption spectra, presumably due to the blocking of the photo-induced electron transfer (PET) process by the complexation with Zn^2+.
# The fluorescence enhancement factors [FEF=(F−Fmin)/Fmin] of the two-photon probe AZn2 measured for one- and two-photon processes were 2.5-fold larger than those of the two-photon probe AZn1 as a result of the lower fluorescence quantum yield (Φ) in the absence, and higher Φ in the presence, of excess Zn^2+. These analytical results can be more easily understood from the data in Table 2.
# [5] = One-photon fluorescence intensity as a function of pH; format: physicochemical; settings: biologically relevant pH; 1 μM probe, 30 mM MOPS, 100 mM KCl
# Experimental: FIGS. 8a and 8b show the one-photon fluorescence intensities of AZn1 and AZn2 (1 μM for each), respectively, as a function of pH when free Zn^2+ were absent (∘) and present at a concentration of 1 μM (▪) in mixed solutions of 30 mM MOPS and 100 mM KCl.
# [6] = 20 mM MOPS, 100 mM KCl, 10 mM EGTA, pH 7.2, absence of Zn2+, ±10%
# [7] = 20 mM MOPS, 100 mM KCl, 10 mM EGTA, pH 7.2, presence of Zn2+, ±10%
"fluorescence quantum yield φ [1, 6]","fluorescence quantum yield φ [1, 7]","fluorescence quantum yield φ ([1]; 1,4-dioxane, ±15%)","fluorescence quantum yield φ ([1]; DMF, ±15%)","fluorescence quantum yield φ ([1]; Ethanol, ±15%)","fluorescence quantum yield φ ([1]; H2O, ±15%)","δ, peak two-photon cross section [2] [GM]","φδ, two-photon action cross section [2] [GM]",pH sensitivity of fluorescence [5],Compound,detection limit for Zn2+ [3],"FEF^OP, fluorescence enhancement factor by one-photon process [4]","FEF^TP, fluorescence enhancement factor by two-photon process [4]",FEF (one- and two-photon) relative to AZn1 ([4]; larger than those of AZn1) [fold]
0.022,0.47,0.19,0.055,0.057,0.022,210,86,pH insensitivity,Nc1ccc(NCCN(Cc2ccccn2)Cc2ccccn2)cc1 [AZn1],sub-nM range,21,24,
0.012,0.65,0.094,0.037,0.039,0.012,140,95,pH insensitivity,COc1cc(NC(=O)CN(C)c2ccc3cc(C(C)=O)ccc3c2)ccc1NCCN(Cc1ccccn1)Cc1ccccn1 [AZn2],sub-nM range,54,52,2.5
